{"source": "PubChem BioAssay AID1033", "about": "(Sanford-Burnham Center for Chemical Genomics, 2008)", "note": "Active and inactive are the calls of the source. No rule for the calls is given here."}
{"target": "Chaperone protein DnaK (Escherichia coli (strain K12)) (UniProt P0A6Y8)", "sequence (P0A6Y8 whole entry, looked up, the tested form may be a part)": "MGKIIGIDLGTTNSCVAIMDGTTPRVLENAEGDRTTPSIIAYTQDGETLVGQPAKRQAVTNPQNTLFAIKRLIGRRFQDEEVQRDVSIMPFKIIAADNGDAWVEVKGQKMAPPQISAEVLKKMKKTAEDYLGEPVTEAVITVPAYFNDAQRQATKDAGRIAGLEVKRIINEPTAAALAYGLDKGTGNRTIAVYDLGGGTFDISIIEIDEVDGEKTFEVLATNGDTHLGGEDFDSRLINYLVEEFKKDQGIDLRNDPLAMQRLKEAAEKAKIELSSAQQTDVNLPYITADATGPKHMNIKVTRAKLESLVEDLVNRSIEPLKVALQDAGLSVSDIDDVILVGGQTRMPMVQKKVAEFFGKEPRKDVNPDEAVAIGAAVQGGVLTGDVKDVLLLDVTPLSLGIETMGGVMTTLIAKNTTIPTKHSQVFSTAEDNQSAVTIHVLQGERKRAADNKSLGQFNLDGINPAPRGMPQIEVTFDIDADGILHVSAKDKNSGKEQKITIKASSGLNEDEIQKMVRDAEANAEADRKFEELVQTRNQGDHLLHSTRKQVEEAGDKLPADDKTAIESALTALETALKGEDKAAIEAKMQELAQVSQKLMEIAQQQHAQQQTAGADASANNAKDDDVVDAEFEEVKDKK", "experiment": "binders of DnaK substrate-binding domain, biophysical, NMR, chaperone (AID 1033)", "conditions": "Purified DnaK SBD, NMR ligand binding"}
{"smiles": "C[C@@H]1CC[C@H]2[C@@H](C)C(=O)O[C@@H]3OC4(C)CC[C@@H]1[C@]32OO4", "Kd": "> 4 mM (inactive)"}
{"smiles": "COc1ccc(-c2ccc(=O)n(CC(N)=O)n2)cc1", "Kd": "> 4 mM (inactive)"}
{"smiles": "CC(=O)OC1CCC2(C)C(=CC=C3C2CCC2(C)C3CCC2C(C)/C=C/C(C)C(C)C)C1(C)C", "note": "(stereo not given)", "Kd": "> 4 mM (inactive)"}
{"smiles": "O=C(NCc1ccco1)c1nc2ncccn2n1", "Kd": "> 4 mM (inactive)"}
{"smiles": "CSc1ccc(S(=O)(=O)N2CCCC2)cc1", "Kd": "> 4 mM (inactive)"}
{"smiles": "Clc1ncnc2[nH]ncc12", "Kd": "> 4 mM (inactive)"}
{"smiles": "O=C(c1ccc2c(c1)OCO2)N1CCC2(CC1)OCCO2", "Kd": "> 4 mM (inactive)"}
{"smiles": "O=C(c1ccccc1)N1CCNCC1", "Kd": "> 4 mM (inactive)"}
{"smiles": "CCC(=O)Nc1cc(C(C)C)c(O)cc1C", "Kd": "> 4 mM (inactive)"}
{"smiles": "COc1ccc(-c2nnc(-c3ccc(N)cc3)o2)cc1", "Kd": "> 4 mM (inactive)"}
{"smiles": "CN1CCC(N2CCOCC2)CC1", "Kd": "> 4 mM (inactive)"}
{"smiles": "CCOc1ccc2nc(NS(C)(=O)=O)sc2c1", "Kd": "> 4 mM (inactive)"}
{"smiles": "COc1cnn(-c2ccccc2)c(=O)c1N(C)C", "Kd": "> 4 mM (inactive)"}
{"smiles": "Cc1ncoc1C(=O)Nc1ccccc1C(N)=O", "Kd": "> 4 mM (inactive)"}
{"smiles": "NC(=O)CSc1nc2ccccc2[nH]1", "Kd": "> 4 mM (inactive)"}
{"smiles": "C[C@@H]1O[C@@H](O[C@H]2[C@@H](Oc3cc(O)c4c(c3)O[C@H](c3ccc(O)cc3)CC4=O)O[C@H](CO)[C@@H](O)[C@@H]2O)[C@H](O)[C@H](O)[C@H]1O", "Kd": "> 4 mM (inactive)"}
{"smiles": "Fc1ccc(F)c(CN2CCN(c3ncccn3)CC2)c1", "Kd": "> 4 mM (inactive)"}
{"smiles": "CNC(=O)c1cc(S(=O)(=O)N(C)C)ccc1Cl", "Kd": "> 4 mM (inactive)"}
{"smiles": "CN(C)C(=O)C12CCC(C)(C(=O)O1)C2(C)C", "note": "(stereo not given)", "Kd": "> 4 mM (inactive)"}
{"smiles": "CC(C)=CCCC1(C)C=Cc2c(O)c3c(c(CC=C(C)C)c2O1)OC12C(=CCCC1C(C)(C)O[C@@]2(C/C=C(\\C)C(=O)O)C(=O)O)C3=O", "note": "(stereo not given in full)", "Kd": "> 4 mM (inactive)"}
{"smiles": "CC(=O)Nc1sccc1C(N)=O", "Kd": "> 4 mM (inactive)"}
{"smiles": "COc1ccc2c(c1)OC/C(=C/c1ccc(O)c(O)c1)C2=O", "Kd": "> 4 mM (inactive)"}
{"smiles": "O=C(NC(=S)NCc1cccnc1)c1ccco1", "Kd": "> 4 mM (inactive)"}
{"smiles": "Cc1cc(C(=O)N2CCC3(CC2)OCCO3)cs1", "Kd": "> 4 mM (inactive)"}
{"smiles": "CCC[C@@H]1CCCCN1", "Kd": "> 4 mM (inactive)"}
{"smiles": "Nc1ccccc1C(=O)N1CCOCC1", "Kd": "> 4 mM (inactive)"}
{"smiles": "Cc1cc(=O)n2[nH]c(C)cc2n1", "Kd": "> 4 mM (inactive)"}
{"smiles": "OC1CCNC2CCCCC12", "note": "(stereo not given)", "Kd": "> 4 mM (inactive)"}
{"smiles": "Cc1cc(C(F)(F)F)n2nc(C(=O)O)c(Cl)c2n1", "Kd": "> 4 mM (inactive)"}
{"smiles": "COc1ccc(-c2cc(=O)c3cc(OC)ccc3o2)cc1", "Kd": "> 4 mM (inactive)"}
{"smiles": "OCc1ccc(Oc2ccccc2)nc1", "Kd": "> 4 mM (inactive)"}
{"smiles": "CCNCC(O)c1ccc([N+](=O)[O-])cc1", "note": "(stereo not given)", "Kd": "> 4 mM (inactive)"}
{"smiles": "[O-][n+]1cc(O)c(CN2CCOCC2)c2ccccc21", "Kd": "> 4 mM (inactive)"}
{"smiles": "COc1ccc(-c2coc3c(OC)c(OC)cc(O)c3c2=O)cc1", "Kd": "> 4 mM (inactive)"}
{"smiles": "CC1CN(C2=NCCN2)CC(C)O1", "note": "(stereo not given)", "Kd": "> 4 mM (inactive)"}
{"smiles": "CCOC(=O)c1cc(C)n(C)n1", "Kd": "> 4 mM (inactive)"}
{"smiles": "Clc1ccc(SCCn2cncn2)cc1", "Kd": "> 4 mM (inactive)"}
{"smiles": "O=C(Nc1nnc(C(F)(F)F)s1)c1cccnc1", "Kd": "> 4 mM (inactive)"}
{"smiles": "O=C(O)c1cccc2nsnc12", "Kd": "> 4 mM (inactive)"}
{"smiles": "CC(=O)c1ccc(NC(=O)c2ocnc2C)cc1", "Kd": "> 4 mM (inactive)"}
{"smiles": "Nc1cc(C(=O)N2CCCC2)cc(C(=O)N2CCCC2)c1", "Kd": "> 4 mM (inactive)"}
{"smiles": "CCOCC(=O)N1CCc2ccccc21", "Kd": "> 4 mM (inactive)"}
{"smiles": "O=C1NC(=O)C(Cc2ccccc2)C(=O)N1", "Kd": "> 4 mM (inactive)"}
{"smiles": "Cc1cc2ncn(S(=O)(=O)N3CCOCC3)c2cc1C", "Kd": "> 4 mM (inactive)"}
{"smiles": "CN1CCC(N(C)C2CCN(C)CC2)CC1", "Kd": "> 4 mM (inactive)"}
{"smiles": "Cc1ncc(CC(=O)O)s1", "Kd": "> 4 mM (inactive)"}
{"smiles": "Nc1nc2ncc(CNc3ccc(C(=O)N[C@@H](CCC(=O)O)C(=O)O)cc3)nc2c(=O)[nH]1", "Kd": "> 4 mM (inactive)"}
{"smiles": "CC(=O)O[C@H]1CCC2(C)C3=C(CCC2C1(C)C)[C@@]1(C)CC[C@@H](C(C)CCC=C(C)C)[C@]1(C)CC3", "note": "(stereo not given in full)", "Kd": "> 4 mM (inactive)"}
{"smiles": "N#Cc1cc2ccccc2nc1N", "Kd": "> 4 mM (inactive)"}
{"smiles": "Cn1cnc2c(=O)[nH]cc([N+](=O)[O-])c21", "Kd": "> 4 mM (inactive)"}
{"smiles": "Nc1c(F)c(F)nc(F)c1F", "Kd": "> 4 mM (inactive)"}
{"smiles": "O=c1c(O)c(-c2ccccc2)oc2ccc3occc3c12", "Kd": "> 4 mM (inactive)"}
{"smiles": "C/C(=N\\NC(N)=S)C(=O)O", "Kd": "> 4 mM (inactive)"}
{"smiles": "COc1ccc2c3c([nH]c2c1)C(C)=NCC3", "Kd": "> 4 mM (inactive)"}
{"smiles": "NC(=O)c1ccc(N2C(=O)C=CC2=O)cc1Cl", "Kd": "> 4 mM (inactive)"}
{"smiles": "c1ccc(-n2ncc3c(NCc4ccco4)ncnc32)cc1", "Kd": "> 4 mM (inactive)"}
{"smiles": "CC(=O)Nc1nnc(-c2ccccc2S(C)(=O)=O)o1", "Kd": "> 4 mM (inactive)"}
{"smiles": "C[n+]1cc2c3c(ccc2c2ccc4cc5c(cc4c21)OCO5)OCO3", "Kd": "> 4 mM (inactive)"}
{"smiles": "Cc1cc(NC(=O)c2ccc3c(c2)OCCO3)no1", "Kd": "> 4 mM (inactive)"}
{"smiles": "Cc1cc(Cl)ccc1NC(=O)C(N)=O", "Kd": "> 4 mM (inactive)"}
{"smiles": "O=S(=O)(c1ccc(F)c(Cl)c1)N1CCCC1", "Kd": "> 4 mM (inactive)"}
{"smiles": "Cn1c(O)c(C2=NC(=S)NC2=O)c2ccccc21", "Kd": "> 4 mM (inactive)"}
{"smiles": "Nc1ccccc1N=C1CNC(=O)C1", "Kd": "> 4 mM (inactive)"}
{"smiles": "O=C(O)c1cncc(-c2cccs2)c1", "Kd": "> 4 mM (inactive)"}
{"smiles": "COC(=O)c1ccccc1N(C)S(C)(=O)=O", "Kd": "> 4 mM (inactive)"}
{"smiles": "S=C(NCc1cccnc1)NC1CC1", "Kd": "> 4 mM (inactive)"}
{"smiles": "CN(C)/C=N/S(=O)(=O)c1ccccc1", "Kd": "> 4 mM (inactive)"}
{"smiles": "CC1(C)C2CC(=O)[C@]3(C)C(CC[C@@]4(C)[C@H](c5ccoc5)OC(=O)[C@H]5O[C@]543)[C@@]2(C)C(=O)C[C@H]1O", "note": "(stereo not given in full)", "Kd": "> 4 mM (inactive)"}
{"smiles": "Nc1cc(=O)[nH]c(SCC(=O)NCc2ccccc2)n1", "Kd": "> 4 mM (inactive)"}
{"smiles": "COc1cc2occc2c2oc(=O)ccc12", "Kd": "> 4 mM (inactive)"}
{"smiles": "COC(=O)N(c1ccccc1)P1(=S)OCCO1", "Kd": "> 4 mM (inactive)"}
{"smiles": "C=C1CCC2C(CC2(C)C)C(=O)CCC1O", "note": "(stereo not given)", "Kd": "> 4 mM (inactive)"}
{"smiles": "CC(C)NC(=S)N1CCN(S(C)(=O)=O)CC1", "Kd": "> 4 mM (inactive)"}
{"smiles": "Cc1c(CCO)c(=O)n2c([nH]c3ccccc32)c1C#N", "Kd": "> 4 mM (inactive)"}
{"smiles": "COc1ccc(S(=O)(=O)NCCO)cc1", "Kd": "> 4 mM (inactive)"}
{"smiles": "O=C(O)Cn1c(=O)sc2ccccc21", "Kd": "> 4 mM (inactive)"}
{"smiles": "Cn1c(SCc2ccon2)nc2ccccc2c1=O", "Kd": "> 4 mM (inactive)"}
{"smiles": "C[C@H]1CCCC(=O)CCC/C=C/c2cc(O)cc(O)c2C(=O)O1", "Kd": "> 4 mM (inactive)"}
{"smiles": "COC(=O)/C(=C1\\OC(=O)C(c2ccccc2)C1=O)c1ccccc1", "note": "(stereo not given)", "Kd": "> 4 mM (inactive)"}
{"smiles": "c1ccc(Cc2nnc3sc(-c4ccncc4)nn23)cc1", "Kd": "> 4 mM (inactive)"}
{"smiles": "O=C(Nc1ccncc1)c1c(F)cccc1F", "Kd": "> 4 mM (inactive)"}
{"smiles": "O=C1CSC(=S)N1Cc1cccnc1", "Kd": "> 4 mM (inactive)"}
{"smiles": "NS(=O)(=O)c1ccc(N2CCCC2=O)cc1", "Kd": "> 4 mM (inactive)"}
{"smiles": "CC1(C(=O)O)CC2C=CC1C2", "note": "(stereo not given)", "Kd": "> 4 mM (inactive)"}
{"smiles": "O=C(O)c1ccc(-n2ccnc2)cc1", "Kd": "> 4 mM (inactive)"}
